Measured values: the supplement of paper PMC10331698
± gives the standard deviation of the averaged measurements.

Columns and labels:
Experiment in all cases: level (log10 ratio to DMSO vehicle control); higher = higher biomarker level / cell amount than vehicle control
[1] = compound: CN(C(=O)C(F)(F)C(F)(F)C(F)(F)F)[Si](C)(C)C [N-Methyl-N-trimethylsilylheptafluorobutyramide] (in DMSO)
Protocol: (§1)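 BioMAP Diversity Plus panel of 12 human primary cell co-culture systems (3C, 4H, LPS, SAg, BT, BF4T, BE3C, CASM3C, HDF3CGF, KF3CT, MyoF, Mphg). Compounds were added 1 h before stimulation and left for 24 h (MyoF 48 h; BT 72 h for soluble read-outs or 6 d for IgG). Biomarkers were read by ELISA, cytotoxicity by SRB, PBMC viability and proliferation by Alamar Blue. Each well value was divided by the mean of 8 DMSO control wells on the same plate and log10 transformed; duplicate blinded samples were tested at 4 concentrations.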

[2] = compound: CO[Si](C)(CCC(F)(F)C(F)(F)C(F)(F)C(F)(F)C(F)(F)C(F)(F)F)OC [Dimethoxymethyl((perfluorohexyl)ethyl)silane] (in DMSO)
Protocol: as §1

Octafluoroadipic acid = compound: O=C(O)C(F)(F)C(F)(F)C(F)(F)C(F)(F)C(=O)O [Octafluoroadipic acid] (in DMSO)
Protocol: as §1

Perfluoroundecanoic acid = compound: O=C(O)C(F)(F)C(F)(F)C(F)(F)C(F)(F)C(F)(F)C(F)(F)C(F)(F)C(F)(F)C(F)(F)C(F)(F)F [Perfluoroundecanoic acid] (in DMSO); details: 6700 nM
Protocol: as §1

Perfluorononanoic acid = compound: O=C(O)C(F)(F)C(F)(F)C(F)(F)C(F)(F)C(F)(F)C(F)(F)C(F)(F)C(F)(F)F [Perfluorononanoic acid] (in DMSO)
Protocol: as §1

[3] = compound: O=C(O)C(F)(OC(F)(F)C(F)(F)C(F)(F)F)C(F)(F)F [Ammonium perfluoro-2-methyl-3-oxahexanoate] (in Water)
Protocol: as §1

[4] = compound: OCC(F)(F)OC(F)(F)C(F)(F)OC(F)(F)C(F)(F)OC(F)(F)CO [1H,1H,11H,11H-Perfluorotetraethylene glycol] (in DMSO)
Protocol: as §1

[5] = compound: OCCC(F)(F)C(F)(F)C(F)(F)C(F)(F)F [4:2 Fluorotelomer alcohol] (in DMSO)
Protocol: as §1

| Test System | level (log10) ([1]; 6700 nM) | level (log10) ([1]; 20000 nM) | level (log10) ([1]; 60000 nM) | level (log10) ([2]; 6700 nM) | level (log10) ([2]; 20000 nM) | level (log10) (Octafluoroadipic acid; 6700 nM) | level (log10) (Octafluoroadipic acid; 20000 nM) | level (log10) (Octafluoroadipic acid; 60000 nM) | level (log10) (Perfluoroundecanoic acid) | level (log10) (Perfluorononanoic acid; 6700 nM) | level (log10) (Perfluorononanoic acid; 20000 nM) | level (log10) ([3]; 6700 nM) | level (log10) ([3]; 20000 nM) | level (log10) ([3]; 60000 nM) | level (log10) ([4]; 6700 nM) | level (log10) ([4]; 20000 nM) | level (log10) ([4]; 60000 nM) | level (log10) ([5]; 6700 nM) | level (log10) ([5]; 20000 nM) | level (log10) ([5]; 60000 nM) |
| --- | --- | --- | --- | --- | --- | --- | --- | --- | --- | --- | --- | --- | --- | --- | --- | --- | --- | --- | --- | --- |
| KF3CT:uPA | -0.0045 ± 0.019 | 0.0135 ± 0.005 | 0.0115 ± 0.0078 | 0.0015 ± 0.0092 | -0.015 ± 0.0028 | -0.0045 ± 0.039 | -0.0065 ± 0.028 | -0.0055 ± 0.026 | 0.0125 ± 0.018 | 0.0005 ± 0.018 | 0.009 ± 0.011 | -0.0275 ± 0.043 | -0.009 ± 0.0099 | -0.0175 ± 0.019 | 0.005 ± 0.0057 | 0.018 ± 0.0099 | 0.024 ± 0.031 | -0.0105 ± 0.039 | -0.0185 ± 0.0021 | 0.017 ± 0.027 |
| MyoF:CD106/VCAM-1 | -0.0125 ± 0.021 | -0.014 ± 0.024 | -0.017 ± 0.0085 | 0.003 ± 0.0042 | -0.008 ± 0.018 | -0.0235 ± 0.005 | -0.0255 ± 0.022 | -0.0085 ± 0.016 | -0.079 ± 0.018 | -0.0475 ± 0.025 | -0.024 ± 0.016 | 0.0105 ± 0.033 | 0.012 ± 0.011 | -0.011 ± 0.0099 | 0.011 ± 0.0057 | -0.012 ± 0.011 | -0.0985 ± 0.05 | -0.0275 ± 0.0078 | -0.024 ± 0.0042 | -0.0225 ± 0.064 |
| MyoF:CXCL8/IL-8 | 0.0005 ± 0.025 | 0.003 ± 0.0042 | 0.009 ± 0.027 | -0.016 ± 0.0014 | 0.0085 ± 0.036 | -0.0025 ± 0.00071 | 0.002 ± 0.041 | 0.0235 ± 0.046 | 0.0245 ± 0.0092 | -0.03 ± 0.079 | 0.0445 ± 0.044 | -0.0355 ± 0.032 | -0.0385 ± 0.011 | -0.045 ± 0.011 | -0.0185 ± 0.011 | -0.0215 ± 0.00071 | -0.013 ± 0.018 | -0.039 | -0.0475 ± 0.0021 | 0.0435 ± 0.0078 |
| MyoF:Collagen I | 0.0025 ± 0.019 | 0.007 ± 0.023 | 0.01 ± 0.0057 | -0.0075 ± 0.0064 | 0.007 ± 0.0014 | -0.0165 ± 0.018 | -0.021 ± 0.021 | -0.005 ± 0.0042 | -0.421 ± 0.0092 | -0.017 ± 0.059 | -0.101 ± 0.027 | -0.0135 ± 0.061 | -0.024 ± 0.024 | -0.027 ± 0.031 | -0.0005 ± 0.026 | 0.001 ± 0.03 | -0.0495 ± 0.016 | -0.031 ± 0.044 | -0.031 ± 0.041 | 0.01 ± 0.028 |
| MyoF:Collagen III | 0.006 ± 0.0028 | 0.007 ± 0.0028 | -0.003 ± 0.0085 | 0.0175 ± 0.019 | -0.011 ± 0.011 | -0.002 ± 0.021 | -0.0085 ± 0.028 | -0.0015 ± 0.035 | -0.3895 ± 0.00071 | -0.004 ± 0.0071 | -0.0355 ± 0.018 | 0.0135 ± 0.0035 | 0.006 ± 0.023 | -0.035 ± 0.034 | -0.002 | -0.0085 ± 0.011 | -0.0415 ± 0.0078 | -0.011 ± 0.038 | 0.007 ± 0.042 | 0.0245 ± 0.032 |
| MyoF:Collagen IV | 0.0175 ± 0.0021 | 0.0075 ± 0.0078 | 0.0325 ± 0.04 | 0.0085 ± 0.018 | 0.038 ± 0.0028 | -0.0175 ± 0.0064 | -0.016 ± 0.016 | 0.002 ± 0.021 | 0.57 ± 0.013 | 0.0215 ± 0.022 | 0.221 ± 0.063 | -0.013 ± 0.0057 | 0.0045 ± 0.011 | 0.0105 ± 0.012 | -0.012 ± 0.0014 | -0.0015 ± 0.011 | 0.0245 ± 0.021 | 0 ± 0.0057 | -0.0095 ± 0.012 | 0.0285 ± 0.05 |
| MyoF:Decorin | 0.009 ± 0.011 | 0.0095 ± 0.018 | 0.03 ± 0.042 | -0.0005 ± 0.0021 | 0.029 ± 0.034 | 0.0005 ± 0.011 | -0.0055 ± 0.019 | -0.001 ± 0.013 | -0.026 ± 0.035 | 0.0125 ± 0.028 | 0.0545 ± 0.0035 | -0.048 ± 0.023 | -0.02 ± 0.0085 | -0.024 ± 0.013 | -0.009 | -0.013 | 0.019 ± 0.017 | -0.0155 ± 0.066 | 0.003 ± 0.028 | 0.0645 ± 0.026 |
| MyoF:MMP-1 | -0.007 ± 0.0028 | -0.0055 ± 0.005 | -0.017 ± 0.018 | -0.001 ± 0.011 | -0.012 ± 0.017 | -0.013 ± 0.025 | -0.0175 ± 0.0035 | 0.0125 ± 0.03 | -0.036 ± 0.018 | -0.025 ± 0.031 | 0.0665 ± 0.0021 | -0.0025 ± 0.0064 | 0.0185 ± 0.0092 | -0.0095 ± 0.0064 | 0 ± 0.027 | -0.0085 ± 0.015 | 0.0465 ± 0.083 | -0.0345 ± 0.04 | -0.026 ± 0.027 | 0.0215 ± 0.0064 |
| MyoF:PAI-I | -0.009 ± 0.021 | 0.0095 ± 0.015 | 0.0105 ± 0.0092 | 0.0075 ± 0.0092 | 0.008 ± 0.0014 | -0.012 ± 0.0099 | -0.01 ± 0.017 | 0.001 ± 0.0085 | -0.01 ± 0.018 | -0.01 ± 0.028 | 0.0105 ± 0.03 | -0.0005 ± 0.005 | -0.0025 ± 0.0064 | -0.019 ± 0.011 | -0.01 ± 0.02 | -0.0135 ± 0.013 | -0.01 ± 0.018 | -0.0185 ± 0.018 | -0.0215 ± 0.019 | -0.0155 ± 0.00071 |
| MyoF:SRB | 0.0035 ± 0.012 | 0.0035 ± 0.0035 | 0.0055 ± 0.0035 | 0.0045 ± 0.0064 | 0.0005 ± 0.00071 | -0.0105 ± 0.0064 | -0.005 ± 0.013 | -0.0015 ± 0.00071 | -0.029 ± 0.014 | 0.0025 ± 0.0064 | -0.0155 ± 0.0021 | 0.0095 ± 0.0035 | 0.013 ± 0.013 | 0.0085 ± 0.0035 | -0.0065 ± 0.00071 | -0.0145 ± 0.00071 | -0.0445 ± 0.015 | -0.0015 ± 0.0035 | 0.0015 ± 0.0035 | -0.0015 ± 0.005 |
| MyoF:TIMP-1 | -0.0385 ± 0.019 | -0.027 ± 0.014 | -0.017 | -0.0175 ± 0.0035 | -0.0295 ± 0.018 | -0.0155 ± 0.026 | -0.02 ± 0.025 | -0.0485 ± 0.019 | -0.117 ± 0.055 | 0.0025 ± 0.03 | -0.034 ± 0.033 | -0.0395 ± 0.0092 | -0.0635 ± 0.015 | -0.068 ± 0.0028 | -0.0035 ± 0.012 | 0.017 | 0.0285 ± 0.005 | -0.001 ± 0.04 | 0.013 ± 0.075 | 0.009 ± 0.059 |
| MyoF:alpha-SM Actin | 0.0035 ± 0.0021 | -0.01 ± 0.0014 | 0.0005 ± 0.021 | -0.0045 ± 0.0064 | -0.018 ± 0.018 | 0.007 ± 0.044 | -0.0105 ± 0.052 | 0.007 ± 0.033 | -0.061 ± 0.0085 | -0.0165 ± 0.028 | -0.0645 ± 0.042 | 0.001 ± 0.011 | 0.0005 ± 0.022 | -0.0035 ± 0.0035 | -0.0125 ± 0.026 | -0.057 ± 0.0042 | -0.167 ± 0.037 | -0.021 | -0.0225 ± 0.0035 | -0.0345 ± 0.018 |
| MyoF:bFGF | 0.0025 ± 0.0078 | 0.012 ± 0.0042 | 0.0125 ± 0.012 | 0.002 ± 0.0085 | 0.0055 ± 0.011 | -0.0035 ± 0.00071 | 0.002 ± 0.0057 | 0.0055 ± 0.0092 | 0.0035 ± 0.0092 | -0.0025 ± 0.025 | 0.015 ± 0.014 | 0.017 ± 0.0099 | 0.006 ± 0.0014 | 0.0005 ± 0.0092 | 0.0045 ± 0.00071 | 0.0045 ± 0.0092 | 0.004 ± 0.011 | -0.0015 ± 0.013 | -0.0025 ± 0.015 | 0.004 ± 0.044 |
| lMphg:CCL2/MCP-1 | -0.023 ± 0.0085 | -0.019 ± 0.0028 | 0.002 ± 0.034 | -0.027 ± 0.0057 | 0.001 ± 0.033 | 0.0135 ± 0.013 | -0.008 ± 0.016 | 0.028 ± 0.059 | 0.0025 ± 0.028 | 0.0105 ± 0.0064 | 0.0325 ± 0.03 | 0.0165 ± 0.005 | 0.0125 ± 0.012 | 0.038 ± 0.027 | -0.0285 ± 0.032 | -0.079 ± 0.034 | -0.073 ± 0.052 | -0.018 ± 0.024 | -0.0325 ± 0.0035 | -0.014 ± 0.031 |
